Assay results from patent US12084444B2, “Spiro-lactam NMDA modulators and methods of using same” (Tenacia Biotechnology (Hong Kong) Co., Limited, priority 2016, dated 2024).

Experiments:
[1] = Oral pharmacokinetics (plasma, brain, CSF); assay type: in vivo, Sprague Dawley rats; details: rat, per os, 10 mg/kg
Procedure: In another experiment, Sprague Dawley rats were dosed per os using a normal saline formulation containing 10 mg/kg of the compounds identified in the table below. Plasma, brain, and CSF samples were analyzed at various time points over a 24 hour period. The table below summarizes the results of the oral pharmacokinetics.

[2] = biological target: T1, NMDAR2D expressing HEK cell membranes (Homo sapiens, UniProt O15399); experiment: NMDAR agonist assay, [3H]MK-801 binding, NMDAR2D; assay type: biochemical; details: 50 μM glutamate
T1 construct: expressed in transfected cells; host or cells: HEK cells (membrane extract)
T1 sequence (O15399 28-1336, other chains not shown): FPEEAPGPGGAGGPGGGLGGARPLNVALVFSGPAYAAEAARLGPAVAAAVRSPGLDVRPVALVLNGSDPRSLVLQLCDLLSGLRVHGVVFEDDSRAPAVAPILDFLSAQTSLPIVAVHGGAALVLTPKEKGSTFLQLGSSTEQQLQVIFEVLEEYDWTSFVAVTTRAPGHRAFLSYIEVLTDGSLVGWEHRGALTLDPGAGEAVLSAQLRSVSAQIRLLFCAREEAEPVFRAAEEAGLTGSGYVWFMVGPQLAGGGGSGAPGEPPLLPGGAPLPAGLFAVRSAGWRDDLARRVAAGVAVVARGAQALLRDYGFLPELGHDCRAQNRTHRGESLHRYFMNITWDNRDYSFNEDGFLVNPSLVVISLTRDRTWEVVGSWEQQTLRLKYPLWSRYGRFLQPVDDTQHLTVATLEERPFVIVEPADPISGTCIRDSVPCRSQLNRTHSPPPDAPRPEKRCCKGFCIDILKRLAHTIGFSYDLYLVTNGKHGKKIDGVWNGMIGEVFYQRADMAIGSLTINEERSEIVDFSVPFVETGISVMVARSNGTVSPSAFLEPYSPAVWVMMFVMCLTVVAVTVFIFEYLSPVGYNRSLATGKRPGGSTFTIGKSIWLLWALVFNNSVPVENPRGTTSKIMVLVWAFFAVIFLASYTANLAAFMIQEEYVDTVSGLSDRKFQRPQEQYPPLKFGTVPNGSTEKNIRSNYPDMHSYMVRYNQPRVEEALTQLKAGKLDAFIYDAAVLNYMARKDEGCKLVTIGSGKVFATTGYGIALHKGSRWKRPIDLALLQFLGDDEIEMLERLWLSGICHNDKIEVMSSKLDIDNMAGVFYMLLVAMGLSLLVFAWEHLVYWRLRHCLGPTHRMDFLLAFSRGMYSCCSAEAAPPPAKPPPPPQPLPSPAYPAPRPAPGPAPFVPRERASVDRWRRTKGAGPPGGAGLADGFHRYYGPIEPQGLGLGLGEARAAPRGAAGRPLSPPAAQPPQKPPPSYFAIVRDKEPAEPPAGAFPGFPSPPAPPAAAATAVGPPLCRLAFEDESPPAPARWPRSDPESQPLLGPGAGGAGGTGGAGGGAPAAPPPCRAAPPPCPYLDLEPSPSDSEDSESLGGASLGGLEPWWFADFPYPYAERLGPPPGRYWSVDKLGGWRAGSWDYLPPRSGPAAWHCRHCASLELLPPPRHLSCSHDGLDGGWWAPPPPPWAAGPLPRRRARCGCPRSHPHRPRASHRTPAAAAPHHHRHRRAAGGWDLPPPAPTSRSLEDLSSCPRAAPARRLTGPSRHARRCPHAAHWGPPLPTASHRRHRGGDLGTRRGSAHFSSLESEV
Procedure: (§1) Assays were conducted as described by Moskal et al., “GLYX-13: a monoclonal antibody-derived peptide that acts as an N-methyl-D-aspartate receptor modulator,” Neuropharmacology, 49, 1077-87, 2005. These studies were designed to determine if the test compounds act to facilitate NMDAR activation in NMDAR2A, NMDAR2B, NMDAR2C or NMDAR2D expressing HEK cell membranes as measured by increases in [^3H]MK-801 binding.
(§2) In the assay, 300 μg of NMDAR expressing HEK cell membrane extract protein was preincubated for 15 minutes at 25° C. in the presence of saturating concentrations of glutamate (50 μM) and varying concentrations of test compound (1×10^−15 M-1×10^−7 M), or 1 mM glycine. Following the addition of 0.3 μCi of [^3H]MK-801 (22.5 Ci/mmol), reactions were again incubated for 15 minutes at 25° C. (nonequilibrium conditions). Bound and free [^3H]MK-801 were separated via rapid filtration using a Brandel apparatus.
(§3) In analyzing the data, the DPM (disintegrations per minute) of [^3H]MK-801 remaining on the filter were measured for each concentration of test compound or for 1 mM glycine. The DPM values for each concentration of a ligand (N=2) were averaged. The baseline value was determined from the best fit curve of the DPM values modeled using the GraphPad program and the log(agonist) vs. response(three parameters) algorithm was then subtracted from all points in the dataset. The % maximal [^3H]MK-801 binding was then calculated relative to that of 1 mM glycine: all baseline subtracted DPM values were divided by the average value for 1 mM glycine. The EC50 and % maximal activity were then obtained from the best fit curve of the % maximal [^3H]MK-801 binding data modelled using the GraphPad program and the log(agonist) vs. response(three parameters) algorithm.
(§4) The tables below summarize the results for the wild type NMDAR agonists NMDAR2A, NMDAR2B, NMDAR2C, and NMDAR2D, and whether the compound is not an agonist (−), is an agonist (+), or is a strong agonist (++), where column A is based on the % maximal [^3H]MK-801 binding relative to 1 mM glycine (−=0; <100%=+; and >100%=++); and column B is based on log EC50 values (0=−; ≥1×10^−9 M (e.g., −8)=+; and <1×10^−9 M (e.g., −10)=++).

[3] = biological target: T2, NMDAR2D expressing HEK cell membranes (Homo sapiens, UniProt O15399+Q05586); experiment: NMDAR agonist assay, [3H]MK-801 binding, NMDAR2D; assay type: biochemical; details: 50 μM glutamate; read-out: NMDAR2D B: log EC50 (converted)
T2 construct: expressed in transfected cells; host or cells: HEK cells (membrane extract)
T2 sequence (O15399 28-1336, other chains not shown): as above
Procedure: as §1, §2, §3, §4

[4] = biological target: T3, NMDAR2B expressing HEK cell membranes (Homo sapiens, UniProt Q05586+Q13224); experiment: NMDAR agonist assay, [3H]MK-801 binding, NMDAR2B; assay type: biochemical; details: 50 μM glutamate
T3 construct: expressed in transfected cells; host or cells: HEK cells (membrane extract)
T3 sequence (Q13224 27-1484, other chains not shown): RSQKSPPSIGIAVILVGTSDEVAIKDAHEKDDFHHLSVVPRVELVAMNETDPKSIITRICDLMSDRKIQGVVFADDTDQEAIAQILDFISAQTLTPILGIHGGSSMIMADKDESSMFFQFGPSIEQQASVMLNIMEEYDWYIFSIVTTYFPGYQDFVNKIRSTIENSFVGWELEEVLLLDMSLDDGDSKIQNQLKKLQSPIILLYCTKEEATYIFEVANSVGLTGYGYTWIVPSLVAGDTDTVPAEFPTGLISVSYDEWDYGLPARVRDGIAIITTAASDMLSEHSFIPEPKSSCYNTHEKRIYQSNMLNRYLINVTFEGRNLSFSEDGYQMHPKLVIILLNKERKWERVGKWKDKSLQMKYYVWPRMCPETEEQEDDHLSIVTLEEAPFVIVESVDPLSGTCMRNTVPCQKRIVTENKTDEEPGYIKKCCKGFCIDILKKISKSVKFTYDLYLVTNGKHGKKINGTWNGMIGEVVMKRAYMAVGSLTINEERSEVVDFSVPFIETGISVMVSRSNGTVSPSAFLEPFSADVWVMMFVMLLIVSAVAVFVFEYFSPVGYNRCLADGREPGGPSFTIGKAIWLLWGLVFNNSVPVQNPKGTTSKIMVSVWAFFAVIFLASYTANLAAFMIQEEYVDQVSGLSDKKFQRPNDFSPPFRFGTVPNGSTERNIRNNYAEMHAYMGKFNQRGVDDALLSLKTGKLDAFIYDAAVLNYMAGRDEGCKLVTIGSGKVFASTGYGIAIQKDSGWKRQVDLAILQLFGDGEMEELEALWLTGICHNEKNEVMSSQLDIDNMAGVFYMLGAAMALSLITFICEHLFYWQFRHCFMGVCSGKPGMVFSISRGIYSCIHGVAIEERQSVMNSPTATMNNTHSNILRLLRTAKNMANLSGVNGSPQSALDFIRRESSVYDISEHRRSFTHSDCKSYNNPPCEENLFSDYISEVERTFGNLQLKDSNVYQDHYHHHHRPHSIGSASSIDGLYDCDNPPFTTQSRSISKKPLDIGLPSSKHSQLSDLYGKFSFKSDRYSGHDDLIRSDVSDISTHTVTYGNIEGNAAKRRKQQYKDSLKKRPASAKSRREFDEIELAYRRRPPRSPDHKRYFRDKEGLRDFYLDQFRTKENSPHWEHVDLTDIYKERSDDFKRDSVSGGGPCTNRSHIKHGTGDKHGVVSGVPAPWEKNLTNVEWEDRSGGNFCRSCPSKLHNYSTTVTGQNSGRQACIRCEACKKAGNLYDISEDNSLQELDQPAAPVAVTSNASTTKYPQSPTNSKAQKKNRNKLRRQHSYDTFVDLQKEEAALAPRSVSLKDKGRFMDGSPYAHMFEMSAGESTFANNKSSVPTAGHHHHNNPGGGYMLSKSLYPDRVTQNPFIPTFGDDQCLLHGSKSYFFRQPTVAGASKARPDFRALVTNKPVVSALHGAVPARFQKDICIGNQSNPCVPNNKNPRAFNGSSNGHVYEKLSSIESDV
Summary of the method: (§5)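 HEK membranes (300 μg protein) expressing each subtype were preincubated 15 min at 25 °C with 50 μM glutamate and compound (1×10^−15–1×10^−7 M) or 1 mM glycine. [3H]MK-801 (0.3 μCi) binding then ran 15 min under nonequilibrium conditions, followed by filtration. EC50 and % maximal binding against 1 mM glycine came from three-parameter fits of baseline-subtracted DPM (N=2).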

[5] = biological target: T4, NMDAR2A expressing HEK cell membranes (Homo sapiens, UniProt Q05586+Q12879); experiment: NMDAR agonist assay, [3H]MK-801 binding, NMDAR2A; assay type: biochemical; set-up: key to NMDAR2A B: log EC50: 0=−; ≥1×10^−9 M (e.g., −8)=+; <1×10^−9 M (e.g., −10)=++; details: 0.25 h, 50 μM glutamate; read-out: NMDAR2A A: % maximal [3H]MK-801 binding relative to 1 mM glycine
T4 construct: expressed in transfected cells; host or cells: HEK cells (membrane extract)
T4 sequence (Q12879 23-1464, other chains not shown): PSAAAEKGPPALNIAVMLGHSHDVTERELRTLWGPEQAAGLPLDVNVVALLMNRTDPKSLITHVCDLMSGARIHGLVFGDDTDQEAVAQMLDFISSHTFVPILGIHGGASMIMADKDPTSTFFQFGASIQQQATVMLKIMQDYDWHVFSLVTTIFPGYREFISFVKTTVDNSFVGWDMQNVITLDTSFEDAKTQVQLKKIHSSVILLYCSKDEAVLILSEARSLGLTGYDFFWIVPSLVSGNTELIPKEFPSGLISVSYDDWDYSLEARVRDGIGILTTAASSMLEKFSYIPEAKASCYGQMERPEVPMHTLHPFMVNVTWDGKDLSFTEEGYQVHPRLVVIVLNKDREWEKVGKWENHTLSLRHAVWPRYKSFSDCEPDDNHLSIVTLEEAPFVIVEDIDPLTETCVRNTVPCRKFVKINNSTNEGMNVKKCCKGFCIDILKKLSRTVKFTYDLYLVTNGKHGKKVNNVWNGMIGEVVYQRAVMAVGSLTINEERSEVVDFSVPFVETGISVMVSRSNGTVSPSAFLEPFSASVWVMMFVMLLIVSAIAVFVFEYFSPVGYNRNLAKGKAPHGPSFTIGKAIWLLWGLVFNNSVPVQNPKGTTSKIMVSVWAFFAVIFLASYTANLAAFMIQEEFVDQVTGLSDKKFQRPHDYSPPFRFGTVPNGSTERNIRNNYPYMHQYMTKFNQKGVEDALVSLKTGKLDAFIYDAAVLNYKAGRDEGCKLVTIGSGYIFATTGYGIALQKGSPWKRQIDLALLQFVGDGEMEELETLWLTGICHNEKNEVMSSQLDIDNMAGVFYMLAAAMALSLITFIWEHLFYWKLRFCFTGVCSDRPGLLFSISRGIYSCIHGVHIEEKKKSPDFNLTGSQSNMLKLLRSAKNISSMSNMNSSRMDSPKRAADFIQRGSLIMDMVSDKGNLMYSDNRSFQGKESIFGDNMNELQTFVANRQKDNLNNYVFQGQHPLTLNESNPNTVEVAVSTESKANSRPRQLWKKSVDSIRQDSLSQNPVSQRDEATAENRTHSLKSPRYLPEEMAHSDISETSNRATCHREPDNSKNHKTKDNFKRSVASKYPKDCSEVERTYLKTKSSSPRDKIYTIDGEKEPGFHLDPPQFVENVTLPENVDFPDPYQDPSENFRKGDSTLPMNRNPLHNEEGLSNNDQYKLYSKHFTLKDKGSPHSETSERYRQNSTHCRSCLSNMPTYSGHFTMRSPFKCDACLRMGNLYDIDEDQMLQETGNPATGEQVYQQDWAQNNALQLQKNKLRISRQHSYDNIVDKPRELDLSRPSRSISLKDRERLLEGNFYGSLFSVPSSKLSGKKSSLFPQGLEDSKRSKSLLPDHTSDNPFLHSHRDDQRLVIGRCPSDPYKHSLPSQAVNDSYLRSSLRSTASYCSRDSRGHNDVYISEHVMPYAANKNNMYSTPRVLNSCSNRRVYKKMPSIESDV
Summary of the method: as §5

[6] = biological target: T5, NMDAR2A expressing HEK cell membranes (Homo sapiens, UniProt Q12879); experiment: NMDAR agonist assay, [3H]MK-801 binding, NMDAR2A; assay type: biochemical; set-up: key to NMDAR2A B: log EC50: 0=−; ≥1×10^−9 M (e.g., −8)=+; <1×10^−9 M (e.g., −10)=++; details: 50 μM glutamate
T5 construct: expressed in transfected cells; host or cells: HEK cells (membrane extract)
Summary of the method: as §5

[7] = biological target: T6, NMDAR2C expressing HEK cell membranes (Homo sapiens, UniProt Q14957); experiment: NMDAR agonist assay, [3H]MK-801 binding, NMDAR2C; assay type: biochemical; details: 50 μM glutamate
T6 construct: expressed in transfected cells; host or cells: HEK cells (membrane extract)
Procedure: as §1, §2
as §3, with “algorithm. […]” for “algorithm.”

Sprague Dawley rats = experiment: Porsolt forced swim test; assay type: in vivo; details: 0.1 mg/kg; for % reduction in float time: relative to vehicle group
Procedure: A non-clinical in vivo pharmacology study (Porsolt assay) was performed to measure antidepressant-like effects. A negative control (0.5% sodium carboxymethyl cellulose in 0.9% sterile saline vehicle) and a positive control (fluoxetine) are shown for comparison against test compound. The study allowed for the evaluation of the effects of each compound on the Porsolt forced swim test as assessed by the rats' response (reduced floating time) during a 5-minute swimming test.
Male 2-3 month old Sprague Dawley rats were used (Harlan, Indianapolis, IN). Rats were housed in Lucite cages with aspen wood chip bedding, maintained on a 12:12 light:dark cycle (lights on at 5 AM), and given ad libitum access to Purina lab chow (USA) and tap water throughout the study.
The Porsolt forced swim test adapted for use in rats was performed as described by Burgdorf et al., (The long-lasting antidepressant effects of rapastinel (GLYX-13) are associated with a metaplasticity process in the medial prefrontal cortex and hippocampus. Neuroscience 308:202-211, 2015). Animals were placed in a 46 cm tall×20 cm in diameter clear glass tube filled to 30 cm with tap water (23±1° C.) for 15 min on the first day (habituation) and 5 min on the subsequent test day. Positive control fluoxetine was dosed 3 times (24 h, 5 h and 1 h) prior to testing. Animals were tested 1 h or 24 h post-dosing with the test compounds or vehicle. Animals received a 15 min habituation session 1 day before the 5 min test. Water was changed after every other animal. Animals were videotaped, and floating time as defined as the minimal amount of effort required to keep the animals head above water was scored offline by a blinded experimenter with high inter-rater reliability (Pearson's r>0.9).
Each compound tested at dose level shown. Significance vs. vehicle group for each experiment is marked. […] A compound marked “No” was not statistically significant from vehicle. Data was averaged for test compound and vehicle groups (N approximately 8 per group) and the percent reduction in floating for group treated with test compound relative to group treated with vehicle is shown.

- AUC(0-t) ([1]; Sprague Dawley, plasma, po): 17300 ng·h/mL
- bioavailability ([1]; Sprague Dawley, plasma, po): 100%
- Tmax ([1]; Sprague Dawley, plasma, po, normal saline): 15 min
- Cmax ([1]; Sprague Dawley, po, plasma): 11300 ng/mL
- CSF Cmax ([1]; CSF): 1476.3 ng/mL
- Brain Cmax ([1]; brain): 1107.2 ng/mL
- NMDAR2D A: % maximal [3H]MK-801 binding relative to 1 mM glycine [2]: + (<100%=+)
- EC50 [3]: < 1 nM
- EC50 ([4]; read-out: NMDAR2B B: log EC50 (converted)): < 1 nM
- Emax ([4]; 0.25 h, read-out: NMDAR2B A: % maximal [3H]MK-801 binding relative to 1 mM glycine): < 100%
- Emax [5]: 0%
- NMDAR2A B: log EC50 [6]: −
- NMDAR2C A: % maximal [3H]MK-801 binding relative to 1 mM glycine [7]: − (−=0)
SMILES: COc1ccc(CN2C[C@@]3(CCNC(=O)C3)C2=O)cc1 [Compound AA-2, 2-(4-methoxybenzyl)-2,7-diazaspiro[3.5]nonane-1,6-dione]
- Significance vs. vehicle (Sprague Dawley rats; 1 h post-dose): Yes (found to be statistically significant (p<=0.05) from vehicle at dose level shown)
- % reduction in float time (Sprague Dawley rats; 1 h post-dose): 51.5%
- Significance vs. vehicle (Sprague Dawley rats; 24 h post-dose): Yes (found to be statistically significant (p<=0.05) from vehicle at dose level shown)
- % reduction in float time (Sprague Dawley rats; 24 h post-dose): 77.80%
